Assay [1] has as its system third stage larvae of Haemonchus contortus. The experiment in a line: Haemonchus contortus L3 (HcL3) Assay. The assay is classed as cell-based. The conditions noted are these: 96 h, read-out: HcL3 Minimum Effective Dose (MED).
Assay [2] deals with 4th stage larvae (L4) of Dirofilaria immitis. The assay is described as follows: Dirofilaria immitis, L4 Stage (DiL4) In Vitro Assay. In kind it is cell-based. The conditions noted are these: Dirofilaria immitis, 72 h, read-out: DiL4 Minimum Effective Dose (MED), approximately 72 hours incubation; L4 larvae assessed for survival or paralysis.

Some results are limits rather than exact numbers.

For the molecule `CC(C)C[C@H]1C(=O)O[C@H](Cc2ccc(Cn3ccnc3Cl)cc2)C(=O)N(C)[C@@H](CC(C)C)C(=O)O[C@H](C)C(=O)N(C)[C@@H](CC(C)C)C(=O)O[C@H](Cc2ccc(Cn3ccnc3Cl)cc2)C(=O)N(C)[C@@H](CC(C)C)C(=O)O[C@H](C)C(=O)N1C` [Example 6-9, (3S,6R,9S,12R,15S,18R,21S,24R)-6,18-bis(4-((2-chloro-1H-imidazol-1-yl)methyl)benzyl)-3,9,15,21-tetraisobutyl-4,10,12,16,22,24-hexamethyl-1,7,13,19-tetraoxa-4,10,16,22-tetraazacyclotetracosan-2,5,8,11,14,17,20,23-octaone], the results for the minimal effective concentration in assay [1] and in assay [2] were 1 to 10 µM and at most 0.0001 µM, respectively.

Regarding `CCOc1cnn(C(C)(C)c2ccc(C[C@H]3OC(=O)[C@H](CC(C)C)N(C)C(=O)[C@@H](C)OC(=O)[C@H](CC(C)C)N(C)C(=O)[C@@H](Cc4ccc(C(C)(C)n5cc(OCC)cn5)cc4)OC(=O)[C@H](CC(C)C)N(C)C(=O)[C@@H](C)OC(=O)[C@H](CC(C)C)N(C)C3=O)cc2)c1` [Example 1b-171, (3S,6R,9S,12R,15S,18R,21S,24R)-6,18-bis(4-(2-(4-ethoxy-1H-pyrazol-1-yl)propan-2-yl)benzyl)-3,9,15,21-tetraisobutyl-4,10,12,16,22,24-hexamethyl-1,7,13,19-tetraoxa-4,10,16,22-tetraazacyclotetracosan-2,5,8,11,14,17,20,23-octaone], the minimal effective concentration in assay [1] is at most 1 µM; in assay [2] it was at most 0.0001 µM.

Take `CCOc1ccn(Cc2ccc(C[C@H]3OC(=O)[C@H](CC(C)C)N(C)C(=O)[C@@H](C)OC(=O)[C@H](CC(C)C)N(C)C(=O)[C@@H](Cc4ccc(Cn5nccc5OCC)cc4)OC(=O)[C@H](CC(C)C)N(C)C(=O)[C@@H](C)OC(=O)[C@H](CC(C)C)N(C)C3=O)cc2)n1` [Example 1a-36, (3S,6R,9S,12R,15S,18R,21S,24R)-6-(4-((3-ethoxy-1H-pyrazol-1-yl)methyl)benzyl)-18-(4-((5-ethoxy-1H-pyrazol-1-yl)methyl)benzyl)-3,9,15,21-tetraisobutyl-4,10,12,16,22,24-hexamethyl-1,7,13,19-tetraoxa-4,10,16,22-tetraazacyclotetracosan-2,5,8,11,14,17,20,23-octaone]: the minimal effective concentration lay in the range of 1 to 10 µM in assay [1] and 0.0001 to 0.001 µM in assay [2].

For the molecule `COCc1ccn(Cc2ccc(C[C@H]3OC(=O)[C@H](CC(C)C)N(C)C(=O)[C@@H](C)OC(=O)[C@H](CC(C)C)N(C)C(=O)[C@@H](Cc4ccc(Cn5nccc5COC)cc4)OC(=O)[C@H](CC(C)C)N(C)C(=O)[C@@H](C)OC(=O)[C@H](CC(C)C)N(C)C3=O)cc2)n1` [Example 1a-37, (3S,6R,9S,12R,15S,18R,21S,24R)-3,9,15,21-tetraisobutyl-6-(4-((3-(methoxymethyl)-1H-pyrazol-1-yl)methyl)benzyl)-18-(4-((5-(methoxymethyl)-1H-pyrazol-1-yl)methyl)benzyl)-4,10,12,16,22,24-hexamethyl-1,7,13,19-tetraoxa-4,10,16,22-tetraazacyclotetracosan-2,5,8,11,14,17,20,23-octaone], the minimal effective concentration was in the range of 1 to 10 µM in assay [1] and 0.0001 to 0.001 µM in assay [2].

On to `Cc1nn(Cc2ccc(C[C@H]3OC(=O)[C@H](CC(C)C)N(C)C(=O)[C@@H](C)OC(=O)[C@H](CC(C)C)N(C)C(=O)[C@@H](Cc4ccc(Cn5nc(C)c(O)c5C)cc4)OC(=O)[C@H](CC(C)C)N(C)C(=O)[C@@H](C)OC(=O)[C@H](CC(C)C)N(C)C3=O)cc2)c(C)c1O` [Example 1b-16, (3S,6R,9S,12R,15S,18R,21S,24R)-6,18-bis({4-[(4-hydroxy-3,5-dimethyl-1H-pyrazol-1-yl)methyl]phenyl}methyl)-4,10,12,16,22,24-hexamethyl-3,9,15,21-tetrakis(2-methylpropyl)-1,7,13,19-tetraoxa-4,10,16,22-tetraazacyclotetracosan-2,5,8,11,14,17,20,23-octaone], for which the minimal effective concentration is 1 to 10 µM in assay [1] and 0.0001 to 0.001 µM in assay [2].

`CC(C)C[C@H]1C(=O)O[C@H](Cc2ccc(Cn3cccc3C#N)cc2)C(=O)N(C)[C@@H](CC(C)C)C(=O)O[C@H](C)C(=O)N(C)[C@@H](CC(C)C)C(=O)O[C@H](Cc2ccc(Cn3cccc3C#N)cc2)C(=O)N(C)[C@@H](CC(C)C)C(=O)O[C@H](C)C(=O)N1C` [Example 9-16, 1-[[4-[[(2R,5S,8R,11S,14R,17S,20R,23S)-14-[[4-[(2-cyanopyrrol-1-yl)methyl]phenyl]methyl]-5,11,17,23-tetraisobutyl-4,8,10,16,20,22-hexamethyl-3,6,9,12,15,18,21,24-octaoxo-1,7,13,19-tetraoxa-4,10,16,22-tetrazacyclotetracos-2-yl]methyl]phenyl]methyl]pyrrole-2-carbonitrile]: the minimal effective concentration in assay [1] was at most 1 µM; in assay [2], at most 0.0001 µM.

Consider `COC(C)c1ccnn1Cc1ccc(C[C@H]2OC(=O)[C@H](CC(C)C)N(C)C(=O)[C@@H](C)OC(=O)[C@H](CC(C)C)N(C)C(=O)[C@@H](Cc3ccc(Cn4nccc4C(C)OC)cc3)OC(=O)[C@H](CC(C)C)N(C)C(=O)[C@@H](C)OC(=O)[C@H](CC(C)C)N(C)C2=O)cc1` (stereo partly drawn) [Example 1b-212, (3S,6R,9S,12R,15S,18R,21S,24R)-3,9,15,21-tetraisobutyl-6,18-bis(4-((5-(1-methoxyethyl)-1H-pyrazol-1-yl)methyl)benzyl)-4,10,12,16,22,24-hexamethyl-1,7,13,19-tetraoxa-4,10,16,22-tetraazacyclotetracosan-2,5,8,11,14,17,20,23-octaone], for which the minimal effective concentration is at most 1 µM in assay [1] and 0.0001 to 0.001 µM in assay [2].

As for `CC(C)C[C@H]1C(=O)O[C@H](Cc2ccc(Cn3nccc3-c3cnccn3)cc2)C(=O)N(C)[C@@H](CC(C)C)C(=O)O[C@H](C)C(=O)N(C)[C@@H](CC(C)C)C(=O)O[C@H](Cc2ccc(Cn3nccc3-c3cnccn3)cc2)C(=O)N(C)[C@@H](CC(C)C)C(=O)O[C@H](C)C(=O)N1C` [Example 1b-208, (3S,6R,9S,12R,15S,18R,21S,24R)-3,9,15,21-tetraisobutyl-4,6,10,16,18,22-hexamethyl-12,24-bis(4-((5-(pyrazin-2-yl)-1H-pyrazol-1-yl)methyl)benzyl)-1,7,13,19-tetraoxa-4,10,16,22-tetraazacyclotetracosan-2,5,8,11,14,17,20,23-octaone], the minimal effective concentration in assay [1] lay in the range of 10 to 100 µM; in assay [2], 0.001 to 0.01 µM.

Turning to `COc1ccn(Cc2ccc(C[C@H]3OC(=O)[C@H](CC(C)C)N(C)C(=O)[C@@H](C)OC(=O)[C@H](CC(C)C)N(C)C(=O)[C@@H](Cc4ccc(Cn5ccc(OC)n5)cc4)OC(=O)[C@H](CC(C)C)N(C)C(=O)[C@@H](C)OC(=O)[C@H](CC(C)C)N(C)C3=O)cc2)n1` [Example 1b-115, (3S,6R,9S,12R,15S,18R,21S,24R)-3,9,15,21-tetraisobutyl-6,18-bis(4-((3-methoxy-1H-pyrazol-1-yl)methyl)benzyl)-4,10,12,16,22,24-hexamethyl-1,7,13,19-tetraoxa-4,10,16,22-tetraazacyclotetracosan-2,5,8,11,14,17,20,23-octaone], the minimal effective concentration in assay [1] was at most 1 µM; in assay [2], at most 0.0001 µM.

Turning to `CC(C)C[C@H]1C(=O)O[C@H](Cc2ccc(Cn3nccc3-c3ccc(F)cn3)cc2)C(=O)N(C)[C@@H](CC(C)C)C(=O)O[C@H](C)C(=O)N(C)[C@@H](CC(C)C)C(=O)O[C@H](Cc2ccc(Cn3nccc3-c3ccc(F)cn3)cc2)C(=O)N(C)[C@@H](CC(C)C)C(=O)O[C@H](C)C(=O)N1C` [Example 1b-189, (3S,6R,9S,12R,15S,18R,21S,24R)-6,18-bis(4-((5-(5-fluoropyridin-2-yl)-1H-pyrazol-1-yl)methyl)benzyl)-3,9,15,21-tetraisobutyl-4,10,12,16,22,24-hexamethyl-1,7,13,19-tetraoxa-4,10,16,22-tetraazacyclotetracosan-2,5,8,11,14,17,20,23-octaone], the minimal effective concentration in assay [1] is 10 to 100 µM; in assay [2] it was 0.0001 to 0.001 µM.

For the molecule `CC(C)C[C@H]1C(=O)O[C@H](Cc2ccc(C(C3CC3)n3cccn3)cc2)C(=O)N(C)[C@@H](CC(C)C)C(=O)O[C@H](C)C(=O)N(C)[C@@H](CC(C)C)C(=O)O[C@H](Cc2ccc(C(C3CC3)n3cccn3)cc2)C(=O)N(C)[C@@H](CC(C)C)C(=O)O[C@H](C)C(=O)N1C` (stereo partly drawn) [Example 1c-4, (3S,6R,9S,12R,15S,18R,21S,24R)-6,18-bis(4-(cyclopropyl(1H-pyrazol-1-yl)methyl)benzyl)-3,9,15,21-tetraisobutyl-4,10,12,16,22,24-hexamethyl-1,7,13,19-tetraoxa-4,10,16,22-tetraazacyclotetracosan-2,5,8,11,14,17,20,23-octaone], the minimal effective concentration is at most 1 µM in assay [1] and 0.0001 to 0.001 µM in assay [2].

Take `CCOCc1ccnn1Cc1ccc(C[C@H]2OC(=O)[C@H](CC(C)C)N(C)C(=O)[C@@H](C)OC(=O)[C@H](CC(C)C)N(C)C(=O)[C@@H](Cc3ccc(Cn4nccc4COCC)cc3)OC(=O)[C@H](CC(C)C)N(C)C(=O)[C@@H](C)OC(=O)[C@H](CC(C)C)N(C)C2=O)cc1` [Example 1b-176, (3S,6R,9S,12R,15S,18R,21S,24R)-6,18-bis(4-((5-(ethoxymethyl)-1H-pyrazol-1-yl)methyl)benzyl)-3,9,15,21-tetraisobutyl-4,10,12,16,22,24-hexamethyl-1,7,13,19-tetraoxa-4,10,16,22-tetraazacyclotetracosan-2,5,8,11,14,17,20,23-octaone]: the minimal effective concentration in assay [1] was at most 1 µM; in assay [2], at most 0.0001 µM.

For `CC(C)C[C@H]1C(=O)O[C@H](Cc2ccc(Cn3c(C#N)ccc3C#N)cc2)C(=O)N(C)[C@@H](CC(C)C)C(=O)O[C@H](C)C(=O)N(C)[C@@H](CC(C)C)C(=O)O[C@H](Cc2ccccc2)C(=O)N(C)[C@@H](CC(C)C)C(=O)O[C@H](C)C(=O)N1C` [Example 10-31, 1-(4-(((2R,5S,8R,11S,14R,17S,20R,23S)-14-benzyl-5,11,17,23-tetraisobutyl-4,8,10,16,20,22-hexamethyl-3,6,9,12,15,18,21,24-octaoxo-1,7,13,19-tetraoxa-4,10,16,22-tetraazacyclotetracosan-2-yl)methyl)benzyl)-1H-pyrrole-2,5-dicarbonitrile], the minimal effective concentration in assay [1] was 1 to 10 µM; in assay [2], at most 0.0001 µM.

(Values after patent publication US11331369B2, “Endoparasitic depsipeptides” (Zoetis Services LLC, priority 2017, dated 2022).)
